The values below come from WO2023132380A1, “Polynucleotide for cancer treatment encoding 5'-nucleotidase modified protein” (Bpgene Co Ltd, priority 2022, dated 2023).

Experiment [1] relates to PBS2 TMP phosphohydrolase (T001), Thymidylate 5'-phosphohydrolase derived from Bacteriophage PBS2, SEQ ID NO: 3. Conditions: Preferred substrate, References: Methods Enzymol. 51:285-290 (1978), Also In house data; cited from earlier work.
The target of experiment [2] is T1, Human mitochondrial 5'doxyribonucleotidase NT5M (hdNT-2) (Homo sapiens, UniProt Q9NPB1). Conditions: Preferred substrate, References: Biochem. 46:13809-13818 (2007), Biochemical Pharmacol. 66: 471-479 (2003); cited from earlier work.
T1 sequence (Q9NPB1 32-228): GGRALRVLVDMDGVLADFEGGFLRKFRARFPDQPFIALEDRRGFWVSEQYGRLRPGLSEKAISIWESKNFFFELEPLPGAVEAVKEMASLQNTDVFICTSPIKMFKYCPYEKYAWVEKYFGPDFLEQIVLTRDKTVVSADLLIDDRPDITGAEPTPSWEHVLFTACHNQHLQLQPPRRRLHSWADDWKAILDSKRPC
Experiment [3] has as its target Human cytosolic 5'deoxyribonucleotidase hdNT-1 (Homo sapiens, UniProt Q8TCD5). Conditions: Preferred substrate, References: J. Biol. Chem. 265:6589-6595 (1990), Biochemical Pharmacol. 66: 471-479 (2003); cited from earlier work.
Experiment [4] addresses Murine cytosolic 5'deoxyribnucleotidase mdNT-1 (Mus musculus, UniProt Q9JM14). Particulars: Preferred substrate, References: J. Biol. Chem. 275:5409-5415 (1990), Biochemical Pharmacol. 66: 471-479 (2003); cited from earlier work.
Experiment [5] deals with T1, Human mitochondrial 5'doxyribonucleotidase NT5M (hdNT-2). Briefly: Preferred substrate (km), Table 4: NT5M (hdNT-2). The class given is biochemical. Conditions: human NT5M compared with T001, according to Table 4.

Chain of Murine cytosolic 5'deoxyribnucleotidase mdNT-1 (Q9JM14 whole entry): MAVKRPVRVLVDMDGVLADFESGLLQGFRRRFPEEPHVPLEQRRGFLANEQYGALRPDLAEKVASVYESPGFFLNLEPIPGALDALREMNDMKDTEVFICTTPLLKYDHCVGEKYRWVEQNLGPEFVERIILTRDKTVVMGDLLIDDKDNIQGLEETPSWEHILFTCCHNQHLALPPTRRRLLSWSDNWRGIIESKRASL
Chain of Human cytosolic 5'deoxyribonucleotidase hdNT-1 (Q8TCD5 whole entry): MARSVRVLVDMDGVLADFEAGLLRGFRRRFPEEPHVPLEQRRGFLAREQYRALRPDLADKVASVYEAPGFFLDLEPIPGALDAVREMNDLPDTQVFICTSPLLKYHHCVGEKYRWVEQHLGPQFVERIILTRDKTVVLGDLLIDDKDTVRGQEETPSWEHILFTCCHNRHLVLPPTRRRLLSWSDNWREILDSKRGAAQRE

For orientation: Km means the concentration of substrate that gives half-maximal velocity. As to `Nc1nc2c(ncn2[C@H]2C[C@H](O)[C@@H](COP(=O)(O)O)O2)c(=O)[nH]1` [dGMP], the Km in experiment [1] was 700 µM; in experiment [2], 90 µM; in experiment [3], 3300 µM; in experiment [4] it was 1200 µM.
On to `Cc1cn([C@H]2C[C@H](O)[C@@H](COP(=O)(O)O)O2)c(=O)[nH]c1=O` [dTMP, thymidylate], for which the “affinity for dTMP, times lower” value in experiment [5] is listed as “about 30 times”. The Km in experiment [1] was 10 µM; in experiment [2], 300 µM; in experiment [3] it was 1500 µM; in experiment [4] it was 1400 µM.
As for `O=c1ccn([C@H]2C[C@H](O)[C@@H](COP(=O)(O)O)O2)c(=O)[nH]1` [dUMP], the Km in experiment [1] was 800 µM; in experiment [2] it was 160 µM; in experiment [3], 1500 µM; in experiment [4], 800 µM.
With `Nc1ncnc2c1ncn2[C@H]1C[C@H](O)[C@@H](COP(=O)(O)O)O1` [dAMP], the Michaelis constant (Km) in experiment [3] is 3000 µM; in experiment [4], 1000 µM.
